Experimental findings from ChEMBL document CHEMBL3507680, “University of Dundee, Gates Library screen for HepG2 cell viability” are described below.

The nature of the data set: Human HepG2 cell viability assay in 384 well format. The data set is classed as toxicity, cell-based. Set-up: dose 125 nL, time 70.5 hour; cytotoxicity at 70.5 h: concentration not given beside the values. The following applies: HepG2 cells, read-out: Inhibition.

Take `Cc1noc(C)c1-c1nc(C2CCCN(C(=O)CCN)C2)ccc1CO` (stereo not drawn): the cytotoxicity at 70.5 h is -1.78%.

Turning to `Cc1ocnc1C(=O)N(C)[C@@H]1CC[C@@H](n2ccnc2C)[C@@H]1O`, the cytotoxicity at 70.5 h is -7.34%.

On to `Cc1noc(C)c1-c1nc(C2CCCN(C(=O)C(C)C)C2)ccc1CO` (stereo not drawn), for which the cytotoxicity at 70.5 h is -2.96%.

Regarding `CN(C)CC1(O)CCN(C(=O)Cc2ccc3c(c2)CCCC3)C1` (stereo not drawn), the cytotoxicity at 70.5 h was -7%.

Consider `FC(F)(F)c1cc(C2CCN(c3cnccn3)CC2)n2ccnc2n1`, for which the cytotoxicity at 70.5 h was -5.4%.

In the case of `CNC(=O)CNC(=O)c1ccc(-c2scnc2C)nc1`, the cytotoxicity at 70.5 h was -0.926%.

As to `Cc1cc(C(=O)N2CCCC(c3cc(=O)nc4n3CCC4)C2)on1` (stereo not drawn), the cytotoxicity at 70.5 h is -6.58%.

In the case of `Nc1nccc(C2CCN(c3cnccn3)C2)n1` (stereo not drawn), the cytotoxicity at 70.5 h stood at 21.1%.

Regarding `Cc1ccccc1OC1CCN(CC(=O)Nc2cn(C)nc2C)CC1`, the cytotoxicity at 70.5 h was -1.78%.

On to `Cc1cc(C)n(CC(=O)N2CCC(c3ccn4nccc4n3)CC2)n1`, for which the cytotoxicity at 70.5 h is 26.6%.

As to `CCCN1CCC(c2cc(CCOc3ccc(C(F)(F)F)cc3)[nH]n2)C1` (stereo not drawn), the cytotoxicity at 70.5 h stood at 0.882%.

In the case of `CCC(C)NC(=O)c1cc(S(=O)(=O)N2CCCC2)c(C)s1` (stereo not drawn), the cytotoxicity at 70.5 h is -3.53%.

On to `Cc1cc(Nc2ccc(F)cn2)cc(C2CCN(Cc3ncc[nH]3)C2)n1` (stereo not drawn), for which the cytotoxicity at 70.5 h was -0.353%.

For `CC(=O)N1CCCC1c1nc(CN(C)C(=O)C(C)C)cc(N(C)C)n1` (stereo not drawn), the cytotoxicity at 70.5 h was -4.11%.

In the case of `CO[C@@H]1CC[C@@H](NS(=O)(=O)c2cn(C)nc2C)[C@H]1O`, the cytotoxicity at 70.5 h is -1.72%.

Regarding `Cc1cc2ccccc2n1CCC(=O)N1CCN(C)CC1C(N)=O` (stereo not drawn), the cytotoxicity at 70.5 h was -2.15%.

Turning to `Cc1ncc(CNC(=O)CCc2ccccc2F)c(C2CCCN2C)n1` (stereo not drawn), the cytotoxicity at 70.5 h was -0.236%.

Turning to `O=C(Cc1ccsc1)N1CCCCC1c1ccn2ccnc2n1` (stereo not drawn), the cytotoxicity at 70.5 h is 8.15%.

For `O=C(Cc1ccccc1F)N1CCCCC1c1ccn2ccnc2n1` (stereo not drawn), the cytotoxicity at 70.5 h was -6.86%.

For the compound `COc1cccc(CC(=O)NCc2cnc(C)nc2C2CCCN2C)c1` (stereo not drawn), the cytotoxicity at 70.5 h was -6.33%.

With `COc1cc(CN2CC[C@H](NC(C)=O)[C@@H](O)CC2)ccc1F`, the cytotoxicity at 70.5 h stood at 12.1%.

With `CC(=O)N1CCN([C@@H]2CCC[C@@H](NC(=O)c3cccnc3)[C@H]2O)CC1`, the cytotoxicity at 70.5 h was -11.5%.

For the compound `CC(=O)N1CCN([C@@H]2CC[C@@H](NC(=O)c3cc(C)cs3)[C@H]2O)CC1`, the cytotoxicity at 70.5 h was -4.78%.

With `CC(=O)N1CCC(Cc2cccc(-c3c(C)noc3C)n2)C1` (stereo not drawn), the cytotoxicity at 70.5 h is -7.61%.

Turning to `CCC(=O)N1CCC(c2cncc(Oc3cccnc3)n2)CC1`, the cytotoxicity at 70.5 h is -5.07%.

On to `CCC(=O)N1CCC1c1cc(NC2CCCC2)nc(C)n1` (stereo not drawn), for which the cytotoxicity at 70.5 h is -2.68%.

For the compound `Cc1nc(CCC(=O)NCC(N)=O)cc(C2CCNCC2)n1`, the cytotoxicity at 70.5 h was -6.67%.

`CC1(C(=O)N2CCOCC2)CN(Cc2ncc[nH]2)CCO1` (stereo not drawn): the cytotoxicity at 70.5 h is 11.7%.

As for `COCCC(=O)N1CCCC1c1nc(O)cc(-c2ccccn2)n1` (stereo not drawn), the cytotoxicity at 70.5 h was -5.06%.

On to `O=C(CN1CCCC1)N1CCCC1c1nc(O)cc(-c2ccccn2)n1` (stereo not drawn), for which the cytotoxicity at 70.5 h is 11.1%.

Turning to `O=C(c1cccnc1)N1CCCC1c1nc(O)cc(-c2ccccn2)n1` (stereo not drawn), the cytotoxicity at 70.5 h is -6.66%.

For `Oc1nc(N2CCCC2)nc2c1CCN(Cc1cccnc1)CC2`, the cytotoxicity at 70.5 h is -5.83%.

On to `CN(Cc1ccc(F)cc1)CC1(O)CCN(C(=O)c2ccncc2)C1` (stereo not drawn), for which the cytotoxicity at 70.5 h is -5.43%.

As for `Cc1noc(C)c1-c1cc(CC2CCN(C(=O)c3cc[nH]n3)C2)ncn1` (stereo not drawn), the cytotoxicity at 70.5 h was -0.894%.

Take `CC(=O)Nc1nc(C2CCN(C(=O)c3cncs3)CC2)cs1`: the cytotoxicity at 70.5 h came out at 11.2%.

Consider `COCC(=O)N1CCC(Cc2nccnc2-c2c(C)n[nH]c2C)C1` (stereo not drawn), for which the cytotoxicity at 70.5 h is 12.4%.

Turning to `CN1CCC(c2cccc(Cc3ccccc3)n2)CC1`, the cytotoxicity at 70.5 h was found to be 3.18%.

With `CN1CCCC1c1cccc(Cc2ccc(F)cc2)n1` (stereo not drawn), the cytotoxicity at 70.5 h was 17%.

With `CNC(=O)CCc1cc(C)nc(C2CCCCN2)n1` (stereo not drawn), the cytotoxicity at 70.5 h is -4.98%.

As to `O=C(c1ccc(F)cc1)N1CCOC(c2nc(-c3ncccn3)no2)C1` (stereo not drawn), the cytotoxicity at 70.5 h is -5.53%.

Take `Nc1nc(C2CCN(C(=O)c3cnccn3)CC2)cs1`: the cytotoxicity at 70.5 h came out at 15.4%.

For the compound `Cc1cccc(Nc2nccnc2C2CCCN2CC(N)=O)n1` (stereo not drawn), the cytotoxicity at 70.5 h is -2.88%.

Regarding `NC(=O)C1(c2cnccn2)CCCN1Cc1ccncc1` (stereo not drawn), the cytotoxicity at 70.5 h was -0.768%.

As to `Cc1cc(C)nc(Nc2cccc(C3CCCN(S(C)(=O)=O)C3)n2)n1` (stereo not drawn), the cytotoxicity at 70.5 h worked out at 46.8%.

For `Cc1cc(-c2ccc(C(=O)O)cc2)nc(C2CCN(C(C)C)CC2)n1`, the cytotoxicity at 70.5 h is 0.538%.

Take `O=S(=O)(N1CCOCC1)N1CCC(Oc2cnccn2)CC1`: the cytotoxicity at 70.5 h came out at 0.596%.

As for `CN1CCCCC[C@@H]2[C@@H]1[C@H](c1ccccc1)CN2C(=O)c1ccccn1`, the cytotoxicity at 70.5 h was -1.6%.

Consider `Cn1ccc(C(=O)N2CCOC(c3ccc(C(N)=O)cn3)C2)n1` (stereo not drawn), for which the cytotoxicity at 70.5 h was 0.762%.

Consider `CN1CC(c2cc(O)nc(NCc3ccccc3Cl)n2)CC1=O` (stereo not drawn), for which the cytotoxicity at 70.5 h was -2.82%.

As for `CC(=O)N1CCCC1c1nc(C)cc(-c2ccc(F)cc2)n1` (stereo not drawn), the cytotoxicity at 70.5 h was -1.51%.

As for `Cn1nc(C2CN(C(=O)c3ccncc3)C2)c2nccnc21`, the cytotoxicity at 70.5 h is 13.9%.

In the case of `CC(=O)N1CCC(c2nccnc2-c2ccc(C(=O)O)cc2)CC1`, the cytotoxicity at 70.5 h was found to be 20%.

`COc1ccc(CN(C)[C@@H]2CN(C(=O)c3ccccc3)C[C@H]2O)cc1`: the cytotoxicity at 70.5 h was -2.29%.

For `CCCN(C(=O)c1ccncc1)c1nc2c(s1)CCc1c-2cnn1C`, the cytotoxicity at 70.5 h was 18.2%.

Take `COCCN(C(=O)c1cnccn1)c1nc2c(s1)CCc1c-2cnn1C`: the cytotoxicity at 70.5 h was 7%.

On to `CCCn1cc(CN2CCCC2c2nccc(CN(C)C)n2)cn1` (stereo not drawn), for which the cytotoxicity at 70.5 h stood at 21.3%.

For `Cc1nc2c(c(=O)[nH]1)CCN(C(=O)c1cccc3nccnc13)C2`, the cytotoxicity at 70.5 h came to 0.0996%.

Turning to `O=C(c1cccnc1)N1CCc2c(nc(N3CCCC3)[nH]c2=O)C1`, the cytotoxicity at 70.5 h was -4.95%.

For the compound `O=C(c1ccco1)N1CCC(n2nc(-c3cccs3)ccc2=O)CC1`, the cytotoxicity at 70.5 h was -5.47%.

For `O=C(c1ccco1)N1CCC(n2nc(-c3ccco3)ccc2=O)CC1`, the cytotoxicity at 70.5 h was -3.82%.

Turning to `O=C(C1CCCCC1)N1CCC(n2nc(-c3ccco3)ccc2=O)CC1`, the cytotoxicity at 70.5 h was -0.841%.

As to `Cc1nc(O)c2nnn(C[C@H]3CCCN3C(=O)c3ccccc3F)c2n1`, the cytotoxicity at 70.5 h was -0.74%.

In the case of `O=C(O)CCc1cccc(C2CCCN2Cc2cccc(Cl)c2)n1` (stereo not drawn), the cytotoxicity at 70.5 h is -0.284%.

Take `CN1CCC(c2cccc(CCC(=O)NCC(N)=O)n2)CC1`: the cytotoxicity at 70.5 h is -5.22%.

Take `Cn1cc(C(=O)N2CCCC(c3ccncc3)C2)cn1` (stereo not drawn): the cytotoxicity at 70.5 h is -7.32%.

As for `CN1CCCC[C@@H]2[C@H]1[C@@H](c1ccccc1)CCN2C(=O)c1ccccn1`, the cytotoxicity at 70.5 h is -9.11%.

As for `CCCC(=O)NCCc1cc(N2CCN(C(C)=O)CC2)nc(C2CC2)n1`, the cytotoxicity at 70.5 h is -6.31%.

With `CNC(=O)C1(c2cnccn2)CCCN1C(=O)c1ccccc1C` (stereo not drawn), the cytotoxicity at 70.5 h came out at 15.3%.

On to `Cc1nnsc1C(=O)N1CC[C@H](c2ccccc2)[C@@H]2[C@H]1CCCCN2C`, for which the cytotoxicity at 70.5 h is -3.09%.

Regarding `Cc1cc(C(=O)N2CCCC2c2nc(C)cc(O)n2)on1` (stereo not drawn), the cytotoxicity at 70.5 h was -8.09%.

For `CCc1c(C)nc2cc(C3CCN(Cc4cccc(F)c4)C3)nn2c1O` (stereo not drawn), the cytotoxicity at 70.5 h was -7.92%.

On to `CCc1c(C)nc2cc(C3CCN(Cc4cccnc4)C3)nn2c1O` (stereo not drawn), for which the cytotoxicity at 70.5 h was -5.28%.

Take `Cc1n[nH]cc1CNCC1(c2ccccc2Cl)CCOCC1`: the cytotoxicity at 70.5 h was -4.88%.

`CCCN(CC)Cn1ncc2cn(-c3ccccc3)nc2c1=O`: the cytotoxicity at 70.5 h is -2.92%.

`NC(=O)CC1CCN(S(=O)(=O)c2cnn(-c3ccccc3)c2)CC1`: the cytotoxicity at 70.5 h was -5.73%.

Take `NC(=O)C1CCN(S(=O)(=O)c2cnn(-c3ccccc3)c2)C1` (stereo not drawn): the cytotoxicity at 70.5 h was -3.49%.

On to `CCN(Cc1ccc(C#N)cc1F)C(=O)CN(C)CC(N)=O`, for which the cytotoxicity at 70.5 h was -4.58%.

Consider `CC(c1nc(C2CC2)no1)N1CCN(CCS(C)(=O)=O)CC1` (stereo not drawn), for which the cytotoxicity at 70.5 h is -4.19%.

`COc1ccc(Cl)cc1NCC(=O)N(Cc1ccncc1)C1CC1`: the cytotoxicity at 70.5 h stood at 15.5%.

As for `CC(C)(C)CCS(=O)(=O)NCCc1csc(N2CCCC2)n1`, the cytotoxicity at 70.5 h is -2.83%.

Turning to `CS(=O)(=O)CCNC(=O)NCCc1cc2ccccc2o1`, the cytotoxicity at 70.5 h was -4.01%.

For `OC1(CNc2ccc(Br)cn2)CCOCC1`, the cytotoxicity at 70.5 h was -2.5%.

Regarding `CNS(=O)(=O)CC1CCCN1c1ccc(Cl)cn1` (stereo not drawn), the cytotoxicity at 70.5 h was -1.45%.

On to `Cc1csc(CN(C)C2CCN(c3sccc3C#N)C2=O)n1` (stereo not drawn), for which the cytotoxicity at 70.5 h was 16%.

As to `CCCc1noc(C(C)N2CCN(CCn3ccccc3=O)CC2)n1` (stereo not drawn), the cytotoxicity at 70.5 h was -2.24%.

Consider `CCS(=O)(=O)NCCNC(C)(C)c1nc(C)cs1`, for which the cytotoxicity at 70.5 h was -2.97%.

With `CCCN(C(=O)CN1CCN(CCO)CC1)C1=CCCCC1`, the cytotoxicity at 70.5 h is -0.879%.

Consider `CCN(C(=O)CN1CCN(CC(C)O)CC1)C1=CCCCC1` (stereo not drawn), for which the cytotoxicity at 70.5 h is -3.37%.

As to `COc1c(C2CCCN2c2ncnc3sccc23)c(C)nn1C` (stereo not drawn), the cytotoxicity at 70.5 h is -2.24%.

For `COc1c(C2CCCN2c2ncnc3c2cnn3C)c(C)nn1C` (stereo not drawn), the cytotoxicity at 70.5 h was -5.32%.

With `CC(C)c1cc(C(=O)N2CCc3ccccc3C2C(=O)O)nn1C` (stereo not drawn), the cytotoxicity at 70.5 h is -1.42%.

Regarding `CCC(=O)NCC(=O)N(C)C(c1ccc(Cl)cc1)c1cccnc1` (stereo not drawn), the cytotoxicity at 70.5 h is -1.51%.

With `CN(C)c1ncc(-c2ccc(F)cc2)c(C2CNCCO2)n1` (stereo not drawn), the cytotoxicity at 70.5 h was -2.95%.

Consider `Cc1noc2nc(C3CCN(CC4CCCCC4)CC3)cc(C(F)F)c12`, for which the cytotoxicity at 70.5 h was determined as 1.17%.

As for `c1nc(CCC2CCCCN2)cc(N2CCCC2)n1` (stereo not drawn), the cytotoxicity at 70.5 h is 1.23%.

For `c1nc(CCC2CCCN2)cc(N2CCCCCC2)n1` (stereo not drawn), the cytotoxicity at 70.5 h was 0.142%.

With `COc1ncc(CN2C[C@@H]3CC[C@@](O)(c4ccc(C)cn4)[C@@H]3C2)cn1`, the cytotoxicity at 70.5 h was determined as 2.96%.

With `c1cc2nccc(CC3CCCN(Cc4c[nH]cn4)CC3)c2cn1` (stereo not drawn), the cytotoxicity at 70.5 h was -0.459%.
